Laboratory results: the supplement of paper PMC10307832

What was measured:
Test in all cases: relative viability (nuclei count vs DMSO), 5 days (fraction); higher = more cells survive
[1] = compound: C1COCCN1C2=NC(=NC3=C2OC4=C3C=CC=N4)C5=CC(=CC=C5)NC(=O)C6=CN=C(C=C6)N + C[C@@H](Oc1cc(-c2cnn(C3CCNCC3)c2)cnc1N)c1c(Cl)ccc(F)c1Cl [Crizotinib] (partner 1 µM)
In short: (§1)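 Medians of duplicate plates are given as relative viability. That measure is the nuclei count in treated wells divided by the count in vehicle wells. Counts were taken on 4× images of lung cancer cell lines in 1536-well plates, 5 days after pin-tool dosing the day after seeding with one drug alone or a fixed anchor-drug dose plus five library-drug doses (not always all listed) in √10 steps.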

[2] = compound: C1COCCN1C2=NC(=NC3=C2OC4=C3C=CC=N4)C5=CC(=CC=C5)NC(=O)C6=CN=C(C=C6)N + O=C(CCCCCCC(=O)Nc1ccccc1)NO [Vorinostat] (partner 1 µM)
In short: as §1

Entinostat + Olaparib = compound: Nc1ccccc1NC(=O)c1ccc(CNC(=O)OCc2cccnc2)cc1 [Entinostat] + O=C(c1cc(Cc2n[nH]c(=O)c3ccccc23)ccc1F)N1CCN(C(=O)C2CC2)CC1 [Olaparib] (partner 8 µM)
In short: as §1

Entinostat + Navitoclax = compound: Nc1ccccc1NC(=O)c1ccc(CNC(=O)OCc2cccnc2)cc1 [Entinostat] + CC1(C)CCC(c2ccc(Cl)cc2)=C(CN2CCN(c3ccc(C(=O)NS(=O)(=O)c4ccc(N[C@H](CCN5CCOCC5)CSc5ccccc5)c(S(=O)(=O)C(F)(F)F)c4)cc3)CC2)C1 [Navitoclax] (partner 0.5 µM)
In short: as §1

| Cell Line | relative viability ([1]; first compound 0.02 µM) | relative viability ([1]; first compound 0.06325 µM) | relative viability ([1]; first compound 0.2 µM) | relative viability ([1]; first compound 0.6325 µM) | relative viability ([1]; first compound 2 µM) | relative viability ([2]; first compound 0.02 µM) | relative viability ([2]; first compound 0.06325 µM) | relative viability ([2]; first compound 0.2 µM) | relative viability ([2]; first compound 0.6325 µM) | relative viability ([2]; first compound 2 µM) | relative viability (Entinostat + Olaparib; first compound 0.02 µM) | relative viability (Entinostat + Olaparib; first compound 0.06325 µM) | relative viability (Entinostat + Olaparib; first compound 0.2 µM) | relative viability (Entinostat + Olaparib; first compound 0.6325 µM) | relative viability (Entinostat + Olaparib; first compound 2 µM) | relative viability (Entinostat + Navitoclax; first compound 0.02 µM) | relative viability (Entinostat + Navitoclax; first compound 0.06325 µM) | relative viability (Entinostat + Navitoclax; first compound 0.2 µM) | relative viability (Entinostat + Navitoclax; first compound 0.6325 µM) | relative viability (Entinostat + Navitoclax; first compound 2 µM) |
| --- | --- | --- | --- | --- | --- | --- | --- | --- | --- | --- | --- | --- | --- | --- | --- | --- | --- | --- | --- | --- |
| NCI-H650 | 0.654 | 0.713 | 0.798 | 0.755 | 0.559 | 0.495 | 0.412 | 0.474 | 0.515 | 0.392 | 0.43 | 0.425 | 0.363 | 0.21 | 0.171 |  |  |  |  |  |
| NCI-H661 | 1.16 | 1.27 | 0.971 | 1.12 | 0.932 | 0.766 | 0.803 | 0.769 | 0.806 | 0.529 | 0.696 | 0.721 | 0.641 | 0.567 | 0.339 |  |  |  |  |  |
| NCI-H358 | 0.64 | 0.586 | 0.455 | 0.559 | 0.38 | 0.727 | 0.723 | 0.688 | 0.644 | 0.332 | 0.574 | 0.649 | 0.593 | 0.342 | 0.172 |  |  |  |  |  |
| NCI-H1648 |  |  |  |  |  | 0.313 | 0.306 | 0.42 | 0.281 | 0.294 | 0.769 | 0.624 | 0.673 | 0.615 | 0.512 |  |  |  |  |  |
| NCI-H1792 | 1.2 | 0.946 | 1.01 | 0.767 | 0.382 |  |  |  |  |  | 0.488 | 0.358 | 0.483 | 0.133 | 0.0504 | 0.729 | 0.674 | 0.576 | 0.535 | 0.222 |
| LCLC-103H | 1.03 | 1.15 | 1.09 | 0.957 | 0.974 | 0.806 | 0.804 | 0.699 | 0.728 | 0.698 | 0.748 | 0.738 | 0.684 | 0.528 | 0.447 |  |  |  |  |  |
| NCI-H1703 | 0.357 | 0.731 | 0.506 | 0.401 | 0.416 |  |  |  |  |  | 0.388 | 0.435 | 0.545 | 0.7 | 0.454 | 1.22 | 1.21 | 1.37 | 1.05 | 0.575 |
| EBC-1 | 0.209 | 0.196 | 0.197 | 0.168 | 0.172 |  |  |  |  |  | 0.68 | 0.732 | 0.696 | 0.203 | 0.174 | 0.422 | 0.326 | 0.287 | 0.184 | 0.15 |
| NCI-H1395 |  |  |  |  |  | 0.66 | 0.727 | 0.542 | 0.637 | 0.595 | 0.445 | 0.466 | 0.423 | 0.398 | 0.408 | 1.12 | 1.25 | 1.19 | 0.875 | 0.794 |
| NCI-H1563 | 0.778 | 0.833 | 0.729 | 0.762 | 0.728 |  |  |  |  |  |  |  |  |  |  |  |  |  |  |  |
| ABC-1 | 1.02 | 1.29 | 0.93 | 1.33 | 0.666 | 1.1 | 0.976 | 0.81 | 1.22 | 0.789 | 0.508 | 1.11 | 0.758 | 0.993 | 1.07 |  |  |  |  |  |
| NCI-H1793 |  |  |  |  |  | 0.61 | 0.846 | 0.571 | 0.59 | 0.574 | 0.929 | 0.959 | 0.743 | 0.681 | 0.236 | 0.405 | 0.599 | 0.405 | 0.374 | 0.218 |
